ChEMBL document CHEMBL4364304, “Discovery, synthesis, and in vitro evaluation of a novel bioactive peptide for ACE and DPP-IV inhibitory activity” (Eur J Med Chem, 2019)
Residues, ends and D or L forms follow the SMILES beside them.

Assays:
[1] = biological target: T1, Angiotensin-converting enzyme (Sus scrofa, UniProt F1RRW5); assay: (§1) Inhibition of porcine angiotensin converting enzyme assessed as release of hippuric acid using hippuryl-histidyl-leucine as substrate measured after 30 mins by spectrophotometry analysis
T1 sequence (F1RRW5 whole entry): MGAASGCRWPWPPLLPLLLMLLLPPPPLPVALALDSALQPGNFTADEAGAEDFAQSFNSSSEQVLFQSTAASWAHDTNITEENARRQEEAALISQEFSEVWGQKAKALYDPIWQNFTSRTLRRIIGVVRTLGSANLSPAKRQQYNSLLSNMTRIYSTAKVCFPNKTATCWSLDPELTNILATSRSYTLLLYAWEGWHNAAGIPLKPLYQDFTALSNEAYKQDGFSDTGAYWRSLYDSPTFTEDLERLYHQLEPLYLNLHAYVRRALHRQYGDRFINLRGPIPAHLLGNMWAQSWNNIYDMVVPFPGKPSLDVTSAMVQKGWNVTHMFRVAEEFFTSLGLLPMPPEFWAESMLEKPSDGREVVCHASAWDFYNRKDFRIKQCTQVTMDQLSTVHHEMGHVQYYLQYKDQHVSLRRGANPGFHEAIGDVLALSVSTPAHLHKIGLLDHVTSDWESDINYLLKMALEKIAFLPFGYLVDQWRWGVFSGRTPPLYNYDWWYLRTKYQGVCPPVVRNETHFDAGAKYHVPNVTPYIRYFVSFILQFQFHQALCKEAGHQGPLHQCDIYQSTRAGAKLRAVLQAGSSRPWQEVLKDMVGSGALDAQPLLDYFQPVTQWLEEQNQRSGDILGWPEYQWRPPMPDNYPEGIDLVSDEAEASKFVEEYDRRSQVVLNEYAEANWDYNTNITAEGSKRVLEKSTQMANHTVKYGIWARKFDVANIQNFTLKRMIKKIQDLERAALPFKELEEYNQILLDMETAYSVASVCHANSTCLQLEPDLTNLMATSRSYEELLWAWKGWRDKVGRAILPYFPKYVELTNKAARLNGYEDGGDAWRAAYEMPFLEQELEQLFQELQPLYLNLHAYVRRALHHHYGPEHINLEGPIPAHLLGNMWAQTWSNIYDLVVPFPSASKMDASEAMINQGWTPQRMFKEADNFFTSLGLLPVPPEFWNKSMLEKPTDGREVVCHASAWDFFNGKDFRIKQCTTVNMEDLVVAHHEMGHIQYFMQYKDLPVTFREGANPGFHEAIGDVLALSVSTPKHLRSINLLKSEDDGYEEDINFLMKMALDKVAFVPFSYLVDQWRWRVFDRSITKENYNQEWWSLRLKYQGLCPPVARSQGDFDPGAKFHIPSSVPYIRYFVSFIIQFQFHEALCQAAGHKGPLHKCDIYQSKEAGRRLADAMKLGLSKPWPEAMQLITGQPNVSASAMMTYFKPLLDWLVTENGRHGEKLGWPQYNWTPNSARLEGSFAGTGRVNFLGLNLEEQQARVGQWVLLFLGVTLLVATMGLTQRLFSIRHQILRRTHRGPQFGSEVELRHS

Dipeptidyl peptidase 4 = Dipeptidyl peptidase 4 (Homo sapiens, UniProt P27487); assay: Inhibition of recombinant human DPP4 using H-Gly-Pro conjugated amino methyl coumarin as substrate by fluorometric assay
[2] = biological target: T2, Angiotensin-converting enzyme (Sus scrofa) (UniProt F1RRW5); assay: as §1
T2 sequence (whole entry): T1 sequence (F1RRW5 whole entry)

Chain of Dipeptidyl peptidase 4 (P27487 whole entry): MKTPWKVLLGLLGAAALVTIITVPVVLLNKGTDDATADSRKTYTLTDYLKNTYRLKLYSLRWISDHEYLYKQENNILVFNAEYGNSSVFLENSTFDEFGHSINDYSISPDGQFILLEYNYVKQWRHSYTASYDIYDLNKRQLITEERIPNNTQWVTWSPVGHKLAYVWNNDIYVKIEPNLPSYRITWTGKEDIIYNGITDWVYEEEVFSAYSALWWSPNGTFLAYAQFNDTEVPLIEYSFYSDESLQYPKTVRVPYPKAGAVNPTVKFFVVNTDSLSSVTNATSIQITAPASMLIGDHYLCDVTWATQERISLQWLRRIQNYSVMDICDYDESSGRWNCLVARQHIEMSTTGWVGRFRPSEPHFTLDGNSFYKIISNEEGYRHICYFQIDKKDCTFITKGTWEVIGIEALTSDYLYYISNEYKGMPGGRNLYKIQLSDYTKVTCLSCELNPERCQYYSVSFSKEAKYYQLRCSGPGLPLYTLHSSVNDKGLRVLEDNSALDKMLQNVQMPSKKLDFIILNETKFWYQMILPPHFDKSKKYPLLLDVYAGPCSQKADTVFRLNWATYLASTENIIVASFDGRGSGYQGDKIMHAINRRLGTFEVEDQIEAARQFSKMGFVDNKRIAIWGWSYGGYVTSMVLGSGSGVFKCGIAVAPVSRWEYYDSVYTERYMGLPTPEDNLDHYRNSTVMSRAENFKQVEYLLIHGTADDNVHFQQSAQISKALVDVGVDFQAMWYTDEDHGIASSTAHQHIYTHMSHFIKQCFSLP

Row | IC50 [1] | IC50 (Dipeptidyl peptidase 4) | inhibition [2] | Compound
1 | 300 µM | – | – | CC[C@H](C)[C@H](N)C(=O)N[C@@H](CCC(N)=O)C(=O)N[C@@H](CCCCN)C(=O)N[C@H](C(=O)N[C@@H](C)C(=O)NCC(=O)N[C@H](C(=O)N[C@@H](Cc1c[nH]c2ccccc12)C(=O)O)[C@@H](C)O)C(C)C (H-IQKVAGTW-OH)
2 | 74.3 µM | 3830 µM | Dose-dependent effect | CC[C@H](C)[C@H](NC(=O)[C@H](CC(C)C)NC(=O)[C@@H]1CCCN1C(=O)[C@H](CC(C)C)NC(=O)[C@@H]1CCCN1C(=O)[C@@H](NC(=O)CN)[C@@H](C)CC)C(=O)O (H-GIPLPLI-OH)
